Columns and labels:
[1] = biological target: 5-hydroxytryptamine receptor 1B (Rattus norvegicus, UniProt P28564); format: cell membranes, Wistar, Cerebral cortex, Membrane; note: in other assays of this panel Not Active means under 50% inhibition at 10 µM
[2] = biological target: Receptor tyrosine-protein kinase erbB-2 (Homo sapiens, UniProt P04626); assay: biochemical; format: cell-based, Insect cells; conditions: insect cells;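 note: inhibition of HER2 kinase enzyme activity, measured with Poly(Glu:Tyr) as the phosphorylation substrate; in other assays of this panel Not Active means under 50% inhibition at 10 µM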
Sequence of Receptor tyrosine-protein kinase erbB-2 (P04626 whole entry): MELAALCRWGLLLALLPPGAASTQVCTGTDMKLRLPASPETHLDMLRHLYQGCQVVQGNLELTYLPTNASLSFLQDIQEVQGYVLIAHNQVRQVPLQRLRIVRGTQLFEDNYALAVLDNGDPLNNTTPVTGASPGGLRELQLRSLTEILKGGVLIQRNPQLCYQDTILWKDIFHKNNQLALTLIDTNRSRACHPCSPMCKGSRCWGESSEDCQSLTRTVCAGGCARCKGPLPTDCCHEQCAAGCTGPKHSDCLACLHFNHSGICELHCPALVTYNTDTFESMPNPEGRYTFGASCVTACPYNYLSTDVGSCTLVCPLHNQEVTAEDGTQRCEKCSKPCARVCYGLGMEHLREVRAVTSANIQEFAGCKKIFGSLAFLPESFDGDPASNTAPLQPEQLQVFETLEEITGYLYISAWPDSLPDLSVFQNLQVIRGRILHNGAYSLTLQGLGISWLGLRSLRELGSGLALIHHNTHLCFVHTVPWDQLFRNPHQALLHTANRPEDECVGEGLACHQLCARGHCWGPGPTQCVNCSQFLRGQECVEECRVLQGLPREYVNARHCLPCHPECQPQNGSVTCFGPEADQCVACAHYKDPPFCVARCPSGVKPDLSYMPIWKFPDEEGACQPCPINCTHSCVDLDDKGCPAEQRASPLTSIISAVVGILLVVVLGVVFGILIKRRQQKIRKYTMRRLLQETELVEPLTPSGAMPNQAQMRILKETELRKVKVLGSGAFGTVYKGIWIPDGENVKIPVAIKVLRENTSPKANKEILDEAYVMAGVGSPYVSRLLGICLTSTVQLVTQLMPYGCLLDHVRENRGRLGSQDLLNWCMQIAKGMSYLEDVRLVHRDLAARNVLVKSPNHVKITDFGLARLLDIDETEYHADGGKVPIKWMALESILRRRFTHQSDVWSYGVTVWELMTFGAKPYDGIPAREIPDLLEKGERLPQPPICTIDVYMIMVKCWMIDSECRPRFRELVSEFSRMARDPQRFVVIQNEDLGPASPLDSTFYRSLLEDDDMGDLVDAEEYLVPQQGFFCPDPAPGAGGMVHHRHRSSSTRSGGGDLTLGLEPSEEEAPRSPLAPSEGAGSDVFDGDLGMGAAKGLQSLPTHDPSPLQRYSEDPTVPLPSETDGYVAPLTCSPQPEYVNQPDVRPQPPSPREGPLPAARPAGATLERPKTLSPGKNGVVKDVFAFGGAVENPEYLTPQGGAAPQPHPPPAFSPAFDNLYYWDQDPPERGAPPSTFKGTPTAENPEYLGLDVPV

[3] = DRUGMATRIX: Atrial Natriuretic Factor (ANF) radioligand binding (ligand: [125I] ANF (rat)); format: cell membranes, Cavia porcellus, Dunkin-Hartley, Adrenal gland, Membrane; conditions: Not Active = under 50% inhibition at 10 µM
[4] = DRUGMATRIX: Potassium Channel [KATP] radioligand binding (ligand: [3H] Glyburide); format: cell membranes, Membrane; conditions: hit-t15; Not Active = under 50% inhibition at 10 µM
[5] = biological target: 5-hydroxytryptamine receptor 6 (Homo sapiens, UniProt P50406); format: cell membranes, HeLa, Membrane; conditions: hela; note: in other assays of this panel Not Active means under 50% inhibition at 10 µM
Sequence of 5-hydroxytryptamine receptor 6 (P50406 whole entry): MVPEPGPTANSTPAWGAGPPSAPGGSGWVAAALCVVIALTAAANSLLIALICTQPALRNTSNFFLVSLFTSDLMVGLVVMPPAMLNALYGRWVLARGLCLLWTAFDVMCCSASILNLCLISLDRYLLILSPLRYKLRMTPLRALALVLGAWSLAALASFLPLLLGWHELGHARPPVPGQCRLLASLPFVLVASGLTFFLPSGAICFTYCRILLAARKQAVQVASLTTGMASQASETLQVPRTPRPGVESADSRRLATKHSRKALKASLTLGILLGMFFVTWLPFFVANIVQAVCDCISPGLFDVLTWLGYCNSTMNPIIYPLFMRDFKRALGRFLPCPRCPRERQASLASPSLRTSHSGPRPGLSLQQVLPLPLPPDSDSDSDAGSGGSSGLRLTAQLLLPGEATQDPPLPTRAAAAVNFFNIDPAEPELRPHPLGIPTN

[6] = DRUGMATRIX: Imidazoline I2, Central radioligand binding (ligand: [3H] Idazoxan); format: cell membranes, Rattus norvegicus, Wistar, Cerebral cortex, Membrane; conditions: Not Active = under 50% inhibition at 10 µM
[7] = biological target: Nitric oxide synthase 1 (Rattus norvegicus, UniProt P29476); format: tissue-based, Cerebellum; note: in other assays of this panel Not Active means under 50% inhibition at 10 µM
Sequence of Nitric oxide synthase 1 (P29476 whole entry): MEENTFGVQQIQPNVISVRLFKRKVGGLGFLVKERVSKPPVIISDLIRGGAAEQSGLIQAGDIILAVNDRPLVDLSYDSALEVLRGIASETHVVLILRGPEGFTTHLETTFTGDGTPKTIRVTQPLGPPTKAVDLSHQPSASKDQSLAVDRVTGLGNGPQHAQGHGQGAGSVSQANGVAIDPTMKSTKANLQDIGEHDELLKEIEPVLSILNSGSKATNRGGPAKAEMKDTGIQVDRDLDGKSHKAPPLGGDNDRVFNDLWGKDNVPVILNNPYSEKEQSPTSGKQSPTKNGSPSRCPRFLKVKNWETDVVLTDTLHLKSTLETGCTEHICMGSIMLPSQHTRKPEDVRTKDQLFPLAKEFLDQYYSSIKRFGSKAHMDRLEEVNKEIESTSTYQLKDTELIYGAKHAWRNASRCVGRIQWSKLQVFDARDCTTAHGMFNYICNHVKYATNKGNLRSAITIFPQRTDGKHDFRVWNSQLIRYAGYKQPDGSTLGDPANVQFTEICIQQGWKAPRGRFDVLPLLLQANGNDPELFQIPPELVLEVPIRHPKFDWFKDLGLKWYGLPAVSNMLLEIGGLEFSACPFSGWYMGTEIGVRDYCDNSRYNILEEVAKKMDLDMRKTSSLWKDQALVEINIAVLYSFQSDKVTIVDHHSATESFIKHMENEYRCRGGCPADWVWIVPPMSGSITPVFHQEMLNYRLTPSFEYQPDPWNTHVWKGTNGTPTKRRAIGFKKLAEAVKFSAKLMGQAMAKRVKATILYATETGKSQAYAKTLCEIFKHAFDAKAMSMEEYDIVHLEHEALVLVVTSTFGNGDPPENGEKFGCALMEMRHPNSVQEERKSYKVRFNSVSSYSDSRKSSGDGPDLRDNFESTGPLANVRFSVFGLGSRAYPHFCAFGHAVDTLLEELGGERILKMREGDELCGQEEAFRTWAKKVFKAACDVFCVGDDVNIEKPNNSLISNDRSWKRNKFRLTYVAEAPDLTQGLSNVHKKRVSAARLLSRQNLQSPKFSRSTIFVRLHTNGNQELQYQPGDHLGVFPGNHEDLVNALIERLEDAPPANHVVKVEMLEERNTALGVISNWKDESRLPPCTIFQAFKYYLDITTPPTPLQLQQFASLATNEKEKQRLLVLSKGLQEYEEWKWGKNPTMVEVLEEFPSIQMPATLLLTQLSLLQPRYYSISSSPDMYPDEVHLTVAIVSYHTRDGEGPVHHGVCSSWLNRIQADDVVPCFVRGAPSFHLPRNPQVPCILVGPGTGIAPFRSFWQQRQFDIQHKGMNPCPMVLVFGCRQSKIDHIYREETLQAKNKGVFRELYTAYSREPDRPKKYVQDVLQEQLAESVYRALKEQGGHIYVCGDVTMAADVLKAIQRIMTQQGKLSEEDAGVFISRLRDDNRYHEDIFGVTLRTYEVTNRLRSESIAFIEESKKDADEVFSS

[8] = biological target: T1, Cysteinyl leukotriene receptor 1 (Homo sapiens, UniProt Q9Y271); format: cell membranes, CHO-K1, Membrane; conditions: cho-k1; note: in other assays of this panel Not Active means under 50% inhibition at 10 µM
T1 sequence (Q9Y271 whole entry): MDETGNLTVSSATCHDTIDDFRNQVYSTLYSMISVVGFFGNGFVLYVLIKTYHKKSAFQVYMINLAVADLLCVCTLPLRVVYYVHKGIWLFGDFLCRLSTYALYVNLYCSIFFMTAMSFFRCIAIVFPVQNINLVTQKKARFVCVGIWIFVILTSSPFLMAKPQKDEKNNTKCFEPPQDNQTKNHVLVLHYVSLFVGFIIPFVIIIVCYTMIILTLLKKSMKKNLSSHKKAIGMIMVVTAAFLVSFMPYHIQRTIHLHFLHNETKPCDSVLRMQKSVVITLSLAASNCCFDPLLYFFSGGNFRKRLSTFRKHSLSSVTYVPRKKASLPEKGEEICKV

[9] = biological target: Glycine receptor (Rattus norvegicus, UniProt P22771+P24524+P07727+P20781); format: cell membranes, Wistar, Spinal cord, Membrane; note: in other assays of this panel Not Active means under 50% inhibition at 10 µM
[10] = biological target: T2, B2 bradykinin receptor (Homo sapiens, UniProt P30411); format: cell membranes, Membrane; conditions: chem-1; note: in other assays of this panel Not Active means under 50% inhibition at 10 µM
T2 sequence (P30411 whole entry): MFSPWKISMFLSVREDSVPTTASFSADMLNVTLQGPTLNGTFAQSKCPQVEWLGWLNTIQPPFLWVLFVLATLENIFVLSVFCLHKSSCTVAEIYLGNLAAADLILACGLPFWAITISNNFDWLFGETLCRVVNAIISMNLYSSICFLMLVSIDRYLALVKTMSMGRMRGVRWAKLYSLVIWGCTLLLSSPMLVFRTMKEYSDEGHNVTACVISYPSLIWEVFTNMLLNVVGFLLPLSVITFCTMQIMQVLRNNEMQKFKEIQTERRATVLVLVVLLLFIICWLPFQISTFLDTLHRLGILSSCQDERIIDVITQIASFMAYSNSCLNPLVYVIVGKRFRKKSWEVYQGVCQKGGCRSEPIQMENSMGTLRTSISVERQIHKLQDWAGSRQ

Sequence of 5-hydroxytryptamine receptor 1B (P28564 whole entry): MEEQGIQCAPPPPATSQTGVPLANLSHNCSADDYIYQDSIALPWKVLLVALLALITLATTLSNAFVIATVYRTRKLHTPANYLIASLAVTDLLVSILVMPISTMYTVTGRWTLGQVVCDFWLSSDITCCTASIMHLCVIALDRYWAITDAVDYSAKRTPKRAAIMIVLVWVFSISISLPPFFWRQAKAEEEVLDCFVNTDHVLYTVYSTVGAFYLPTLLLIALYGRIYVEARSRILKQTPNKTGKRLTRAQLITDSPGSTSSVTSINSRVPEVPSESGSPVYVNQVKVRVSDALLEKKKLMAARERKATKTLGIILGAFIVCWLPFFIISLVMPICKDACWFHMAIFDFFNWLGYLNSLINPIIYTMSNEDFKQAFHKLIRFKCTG

Cc1cc(C)nc(NS(=O)(=O)c2ccc(N)cc2)n1 [SULFAMETHAZINE]
Not Active: IC50 [1] | IC50 [2] | IC50 [3] | Ki [3] | IC50 [4] | Ki [4] | IC50 [5] | IC50 [6] | Ki [6] | IC50 [7] | IC50 [8] | IC50 [9] | IC50 [10]

C[C@]1(Cn2ccnn2)[C@H](C(=O)O)N2C(=O)C[C@H]2S1(=O)=O [TAZOBACTAM]
Not Active: IC50 [1] | IC50 [2] | IC50 [3] | Ki [3] | IC50 [4] | Ki [4] | IC50 [5] | IC50 [6] | Ki [6] | IC50 [7] | IC50 [8] | IC50 [9] | IC50 [10]

CN1C(C(=O)Nc2ccccn2)=C(O)c2sccc2S1(=O)=O [TENOXICAM]
Not Active: IC50 [1] | IC50 [2] | IC50 [3] | Ki [3] | IC50 [4] | Ki [4] | IC50 [5] | IC50 [6] | Ki [6] | IC50 [7] | IC50 [8] | IC50 [9] | IC50 [10]

O=C1CCC(N2C(=O)c3ccccc3C2=O)C(=O)N1 (stereo not drawn) [THALIDOMIDE]
Not Active: IC50 [1] | IC50 [2] | IC50 [3] | Ki [3] | IC50 [4] | Ki [4] | IC50 [5] | IC50 [6] | Ki [6] | IC50 [7] | IC50 [8] | IC50 [9] | IC50 [10]

Cc1cccc(Nc2ccncc2S(=O)(=O)NC(=O)NC(C)C)c1 [TORSEMIDE]
Not Active: IC50 [1] | IC50 [2] | IC50 [3] | Ki [3] | IC50 [4] | Ki [4] | IC50 [5] | IC50 [6] | Ki [6] | IC50 [7] | IC50 [8] | IC50 [9] | Ki [10]

CC(C)C[C@H](NC(=O)[C@@H](O)[C@H](N)Cc1ccccc1)C(=O)O [UBENIMEX]
Not Active: IC50 [1] | IC50 [2] | IC50 [3] | Ki [3] | IC50 [4] | Ki [4] | IC50 [5] | IC50 [6] | Ki [6] | IC50 [7] | IC50 [8] | IC50 [9] | IC50 [10]

Cc1onc(-c2ccccc2)c1-c1ccc(S(N)(=O)=O)cc1 [VALDECOXIB]
Not Active: IC50 [1] | IC50 [2] | IC50 [3] | Ki [3] | IC50 [4] | Ki [4] | IC50 [5] | IC50 [6] | Ki [6] | IC50 [7] | IC50 [8] | IC50 [9] | IC50 [10]

CC[C@]1(O)C[C@@H]2CN(CCc3c([nH]c4ccccc34)[C@@](C(=O)OC)(c3cc4c(cc3OC)N(C)[C@H]3[C@@](O)(C(=O)OC)[C@H](OC(C)=O)[C@]5(CC)C=CCN6CC[C@]43[C@@H]65)C2)C1 [VINBLASTINE]
Not Active: IC50 [1] | IC50 [2] | IC50 [3] | Ki [3] | IC50 [4] | Ki [4] | IC50 [5] | IC50 [6] | Ki [6] | IC50 [7] | IC50 [8] | IC50 [9] | IC50 [10]

CC(=O)CC(c1ccccc1)c1c(O)c2ccccc2oc1=O (stereo not drawn) [WARFARIN]
Not Active: IC50 [1] | IC50 [2] | IC50 [3] | Ki [3] | IC50 [4] | Ki [4] | IC50 [5] | IC50 [6] | Ki [6] | IC50 [7] | IC50 [8] | IC50 [9] | IC50 [10]

C[C@@H](N)[C@H]1CC[C@H](C(=O)Nc2ccncc2)CC1 [Y-27632]
Not Active: IC50 [1] | IC50 [2] | IC50 [3] | Ki [3] | IC50 [4] | Ki [4] | IC50 [5] | IC50 [6] | Ki [6] | IC50 [7] | IC50 [8] | IC50 [9] | IC50 [10]

[Cl-].[Cl-].[Zn+2] [ZINC CHLORIDE]
Not Active: IC50 [1] | IC50 [2] | IC50 [3] | Ki [3] | IC50 [4] | Ki [4] | IC50 [5] | IC50 [6] | Ki [6] | IC50 [7] | IC50 [8] | IC50 [9] | IC50 [10]

— ChEMBL document CHEMBL1909046, “DrugMatrix in vitro pharmacology data”
